In patent publication US20250268852A1, “MICROBIOTA IMPROVING AGENT” (SANYO CHEMICAL INDUSTRIES, LTD., priority 2022, published 2025):
Peptide text beside a SMILES is read from it.

Assay: Amount of magnesium captured per 100 g of substance (X), ion-selective electrode method
Format: physicochemical
Description: As for the substance (X), the amount of magnesium captured per 100 g of the substance (X) is preferably 1 g or more, as measured by the ion-selective electrode method.
When the substance (X) is a hydrate, 100 g of the substance (X) refers to 100 g by weight excluding hydration water.
The measurement by the ion-selective electrode method is performed using 2 mM of the substance (X) relative to a 1 mM aqueous MgCl2 solution having a temperature of 20° C. and a pH of 7.
Each substance (X) was subjected to measurement of the amount (g) of magnesium captured per 100 g of the substance (X) by the ion-selective electrode method as follows. For (X-5), the amount of magnesium captured per 100 g of Na2WO4 contained in (X-5) was measured. For (X-16), the amount of magnesium captured per 100 g of adenosine triphosphate disodium contained in (X-16) was measured.
The measurement by the ion-selective electrode method was performed using 2 mM of the substance (X) relative to a 1 mM aqueous MgCl2 solution having a temperature of 20° C. and a pH of 7.

Row | Compound | Amount of magnesium (g) captured per 100 g of substance (X) [g]
1 | Oc1cccc2cccnc12 [Example X-14, 8-Quinolinol] | 2
2 | CC(=O)CC(=O)c1ccccc1 [Example X-3, Benzoylacetone] | 3
3 | O=C[C@H](O)[C@@H](O)[C@H](O)[C@H](O)C(=O)O [Example X-11, Glucuronic acid] | 15
4 | O=C(O)CNCC(=O)O [Example X-13, Iminodiacetic acid] | 8
5 | O=C(O)CC(O)C(=O)O (stereo not shown) [Example X-8, Malic acid] | 15
6 | O=C(O)C(O)C(O)C(=O)O (stereo not shown) [Example X-15, Tartaric acid] | 9
7 | O=C(O)CC(O)(CC(=O)O)C(=O)O [Example X-9, Citric acid] | 20
8 | CC(=O)CCC(=O)O [Example X-4, Levulinic acid] | 2
9 | CC(=O)CC(C)=O [Example X-2, Acetylacetone] | 3
10 | N[C@@H](CCC(=O)O)C(=O)O [Example X-7, Glutamic acid] | 2
11 | NCC(=O)NCC(=O)O [Example X-6, Glycylglycine] (H-Gly-Gly-OH) | 2
12 | O=P([O-])([O-])OP(=O)([O-])OP(=O)([O-])[O-].[Na+].[Na+].[Na+].[Na+].[Na+] [Example X-1, Pentasodium triphosphate] | 5
13 | O=C(O)[C@H](O)[C@@H](O)[C@H](O)[C@H](O)CO [Example X-10, Gluconic acid] | 30
14 | Nc1ncnc2c1ncn2[C@@H]1O[C@H](COP(=O)([O-])OP(=O)([O-])OP(=O)(O)O)[C@@H](O)[C@H]1O.O.O.O.[Na+].[Na+] [Example X-16, Adenosine triphosphate disodium trihydrate] | 5
15 | O=C(O)CN(CCN(CC(=O)O)CC(=O)O)CC(=O)O [Example X-12, Ethylenediaminetetraacetic acid] | 10
16 | O.O.[Na+].[Na+].[O]=[W](=[O])([O-])[O-] [Example X-5, Sodium tungstate dihydrate] | 2
